Data on two compounds can be found in patent publication US20230241142A1, “USE OF A POLAR EXTRACT OF SKELETONEMA IN PHOTODYNAMIC THERAPY” (IFREMER, priority 2020, published 2023).

Each structure is given as a SMILES string.

Common to all, as to format: cell-based
The subject of series [1] is human sebocytes of the SEBO662AR line. The series is described as follows: anti-lipogenic effect: total lipids (BODIPY probe) in stimulated sebocytes. The conditions noted are these: cells stimulated with lipogenic mixture containing androgens + Cerulenin 10 µM. As for the experimental part: The effect of S. marinoï polar algae extract on the overproduction of lipids was studied on human sebocytes of the SEBO662AR line (BIOALTERNATIVES line) stimulated by lipogenic and androgenic factors.
SEBO662AR human sebocytes were first cultured at 37° C. in the presence of 5% CO2 and antibiotics in a dedicated culture medium. After at least one day of culturing, lipogenesis is induced in the SEBO662AR cells by their incubation in the presence of lipogenic and androgenic factors. The cells are then incubated in the presence or in the absence of 3 distinct concentrations of the polar extract. As a positive control of lipogenesis inhibitory activity, the SEBO662AR cells are incubated in the presence of cerulenin. At the end of the incubation period, the total lipids are fluorescently labelled, and the inhibition of lipogenesis is determined for each condition.

Series [2] relates to normal human epidermal keratinocytes (NHEK). The series is described as follows: anti-inflammatory effect: IL-6 secreted by Poly(I:C)-stimulated keratinocytes (ELISA). The conditions noted are these: NHEK stimulated with Poly(I:C) 1 µg/mL + Bafilomycin 100 nM. On the procedure:
(§1) The anti-inflammatory properties of S. marinoï polar algae extract were evaluated on normal human epidermal keratinocytes (NHEK) These NHEK human epidermal keratinocytes were seeded in K-SFM medium supplemented with 0.25 ng/mL of EGF (Epidermal Growth Factor), 25 µg/mL of pituitary extract and 25 µg/mL of Gentamycin in 96-well plates to then be incubated at 37° C. under an atmosphere containing 5% CO2. After at least one day of culturing, the NHEK cells are pre-incubated for 24 hours in the presence or absence of different concentrations of the S. marinoï polar extract. As a positive control of anti-inflammatory activity, NHEK cells were also pre-incubated in the presence of bafilomycin (100 nM). After this pre-incubation, the treatments were renewed and the NHEK cells are then incubated for 24 hours in the presence of poly (I:C) for inducing inflammation. A control condition without inflammation inducer (unstimulated control) was performed in parallel. After incubation, the culture supernatant was collected to determine the level of keratinocyte inflammation by ELISA by measuring the amounts of IL-6 secreted.
On the technique in general: An ELISA detects its analyte on a solid surface through an enzyme-linked reagent.

Series [3] has the same test system. Description: cell viability (WST-8) of Poly(I:C)-stimulated keratinocytes. The conditions noted are these: NHEK stimulated with Poly(I:C) 1 µg/mL + Bafilomycin 100 nM. On the procedure:
The anti-inflammatory properties of S. marinoï polar algae extract were evaluated on normal human epidermal keratinocytes (NHEK)
as §1, with “These” for “The anti-inflammatory properties of S. marinoï polar algae extract were evaluated on normal human epidermal keratinocytes (NHEK) These”, “parallel.” for “parallel. After incubation, the culture supernatant was collected to determine the level of keratinocyte inflammation by ELISA by measuring the amounts of IL-6 secreted.”
Background: Formazan colour is commonly taken as a measure of viable cells.

In the case of `C/C=C/C/C=C/CCC(=O)[C@H]1O[C@H]1C(N)=O` [Cerulenin, cerulenin], in series [1], the “Lipids (BODIPY® probe) Fluorescence intensity /Number of nuclei” value is 188 853^∗∗ and the Stimulation % amounted to 63%.

Regarding `CO/C1=C\C(C)=C\[C@@H](C)[C@@H](O)[C@@H](C)C/C(C)=C/C=C/[C@H](OC)[C@@H]([C@@H](C)[C@@H](O)[C@H](C)[C@@]2(O)C[C@@H](O)[C@H](C)[C@@H](C(C)C)O2)OC1=O` [Bafilomycin, bafilomycin], the IL6 in series [2] came out at 13 pg/mL. In addition, in series [3], the “Cell viability (WST-8)” value is reported as 100.
